Results: US20210275698A1, “COMPOUNDS AND COMPOSITIONS FOR TARGETING MACROPHAGES AND OTHER MANNOSE-BINDING C-TYPE LECTIN RECEPTOR HIGH EXPRESSING CELLS AND METHODS OF TREATING AND DIAGNOSIS USING SAME” (priority 2015, published 2021)

Columns and labels:
[1] = test system: monocyte-derived CD206+ macrophages; test: CD206 targeting assay: uptake, killing and apoptosis of monocyte-derived CD206+ macrophages; type: cell-based
[2] = test system: luciferase-expressing M. tuberculosis H37Rv strain (M.tb-Lux); test: Anti-bacterial activity against M.tb in human macrophages (luminescence); type: cell-based; details: drug equivalency; up to 72 h

SMILES | killing / toxicity to CD206 expressing macrophages (Annexin levels) ([1]; FIG. 17) | apoptosis induction (Annexin-V expression on MOs and in tumor tissue) ([1]; overnight) | lowest concentration at which activity against M.tb was maintained [2]
COc1cccc2c1C(=O)c1c(O)c3c(c(O)c1C2=O)C[C@@](O)(C(=O)CO)C[C@@H]3O[C@H]1C[C@H](N)[C@H](O)[C@H](C)O1 [Docorubicin, doxorubicin] | no toxicity | less effect | –
NNC(=O)c1ccncc1 [INH, isoniazid] | – | – | 0.0312 µM
